Data reported in US20140296343A1, “NON-PEPTIDE BDNF NEUROTROPHIN MIMETICS” (PharmatrophiX, Inc., priority 2010, published 2014).

How the values were obtained:
[1] = system: mouse E16 striatal neurons; settings: cited from earlier work
[2] = system: E16-17 hippocampal neurons; test: Aβ-induced neuronal degeneration (Alzheimer's disease model); assay type: cell-based; settings: for prevention of Aβ-induced degeneration: Aβ1-42 oligomer 10 μM
Protocol: The ability of the BDNF mimetics to prevent Aβ-induced neuronal degeneration can be tested as a model of the compounds' ability to treat Alzheimer's disease. E16-17 hippocampal neurons are matured for 6 days and then incubated for 3 days with the indicated combinations of Aβ oligomer preparations (Dahigren, K. N., et al. (2002) J Biol Chem 277, 32046-32053), neurotrophins and neurotrophin mimetics. Following the three day incubation, neuronal survival is assessed using standard morphological criteria (Massa, S. M., et al. (2006) J Neurosci 26, 5288-5300).
Addition of Aβ1-42 oligomer (10 μM) but not control AβScrambled oligomer (10 μM) results in an approximate 40% reduction in neuronal survival. […] The effectiveness of BDNF mimetics of the present invention can be compared to BDNF in blocking Aβ-induced degeneration.

TrkB = biological target: T1, TrkB (Homo sapiens, UniProt Q16620); test: Trk activation by Western blot of phospho-Trk in NIH3T3 cells expressing TrkB; assay type: cell-based
T1 construct: expressed in transfected cells; host or cells: NIH3T3 (mouse fibroblasts, no native Trk receptors)
T1 sequence (Q16620 32-822): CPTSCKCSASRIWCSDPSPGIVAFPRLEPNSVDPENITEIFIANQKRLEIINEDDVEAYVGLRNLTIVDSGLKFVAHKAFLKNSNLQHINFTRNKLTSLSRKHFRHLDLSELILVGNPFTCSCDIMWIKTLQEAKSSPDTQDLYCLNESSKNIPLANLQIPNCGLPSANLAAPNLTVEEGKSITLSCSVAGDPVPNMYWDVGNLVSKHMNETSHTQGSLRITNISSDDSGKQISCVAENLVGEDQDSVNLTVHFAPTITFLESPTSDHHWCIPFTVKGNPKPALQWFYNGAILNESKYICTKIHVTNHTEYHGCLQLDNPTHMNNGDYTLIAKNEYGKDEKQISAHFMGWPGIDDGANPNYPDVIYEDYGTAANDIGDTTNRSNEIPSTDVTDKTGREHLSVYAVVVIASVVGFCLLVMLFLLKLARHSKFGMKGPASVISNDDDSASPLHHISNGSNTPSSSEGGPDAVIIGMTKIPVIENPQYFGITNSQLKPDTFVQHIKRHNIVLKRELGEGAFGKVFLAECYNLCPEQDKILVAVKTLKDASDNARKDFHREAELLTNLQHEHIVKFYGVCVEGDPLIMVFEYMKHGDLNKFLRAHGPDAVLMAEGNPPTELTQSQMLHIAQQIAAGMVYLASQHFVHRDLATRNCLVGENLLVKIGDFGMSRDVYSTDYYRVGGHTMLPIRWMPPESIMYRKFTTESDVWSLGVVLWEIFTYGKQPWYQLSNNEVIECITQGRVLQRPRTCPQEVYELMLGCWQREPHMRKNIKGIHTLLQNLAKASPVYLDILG
From the text: (§1) To assess the interactions of the BDNF loop 2 mimetic compounds with TrkB receptors, the ability of the compounds of the invention to activate TrkA, TrkB, and TrkC is compared in a series of Western blotting experiments. […] Western blots were used to detect phospho-Trk which is a standard method for detecting Trk activation.

TrkC = biological target: T2, TrkC (Homo sapiens, UniProt Q16288); test: Trk activation by Western blot of phospho-Trk in NIH3T3 cells expressing TrkC; assay type: cell-based
T2 construct: expressed in transfected cells; host or cells: NIH3T3 (mouse fibroblasts, no native Trk receptors)
T2 sequence (Q16288 32-839): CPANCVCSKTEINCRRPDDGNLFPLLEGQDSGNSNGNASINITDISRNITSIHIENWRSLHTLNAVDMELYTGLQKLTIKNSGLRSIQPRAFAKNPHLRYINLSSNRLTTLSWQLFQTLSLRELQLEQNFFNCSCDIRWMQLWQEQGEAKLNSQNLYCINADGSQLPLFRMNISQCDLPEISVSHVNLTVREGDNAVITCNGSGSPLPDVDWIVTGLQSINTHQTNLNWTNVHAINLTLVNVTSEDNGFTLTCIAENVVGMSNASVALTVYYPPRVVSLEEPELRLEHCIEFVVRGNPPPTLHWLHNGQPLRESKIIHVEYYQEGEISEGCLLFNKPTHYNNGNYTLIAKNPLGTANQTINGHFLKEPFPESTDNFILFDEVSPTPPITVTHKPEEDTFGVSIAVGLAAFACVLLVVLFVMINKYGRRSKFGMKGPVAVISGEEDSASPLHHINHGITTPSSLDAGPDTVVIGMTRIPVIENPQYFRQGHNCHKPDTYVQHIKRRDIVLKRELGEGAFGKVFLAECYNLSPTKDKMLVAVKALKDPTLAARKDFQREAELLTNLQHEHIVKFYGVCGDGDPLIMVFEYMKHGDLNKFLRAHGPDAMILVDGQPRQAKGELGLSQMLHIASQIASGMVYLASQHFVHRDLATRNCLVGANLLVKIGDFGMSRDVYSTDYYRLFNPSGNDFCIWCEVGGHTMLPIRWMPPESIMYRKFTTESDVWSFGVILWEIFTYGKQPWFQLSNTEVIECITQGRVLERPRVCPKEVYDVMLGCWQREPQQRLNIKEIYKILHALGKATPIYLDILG
Protocol: as §1
A measurement of NIH3T3 cells expressing TrkC can also be used to evaluate the compounds of the invention. Total amount of TrkC present is determined by probing with anti-TrkC antibodies.

TrkA = biological target: T3, TrkA (Homo sapiens, UniProt P04629); test: Trk activation by Western blot of phospho-Trk in NIH3T3 cells expressing TrkA; assay type: cell-based
T3 construct: expressed in transfected cells; host or cells: NIH3T3 (mouse fibroblasts, no native Trk receptors)
T3 sequence (P04629 33-796): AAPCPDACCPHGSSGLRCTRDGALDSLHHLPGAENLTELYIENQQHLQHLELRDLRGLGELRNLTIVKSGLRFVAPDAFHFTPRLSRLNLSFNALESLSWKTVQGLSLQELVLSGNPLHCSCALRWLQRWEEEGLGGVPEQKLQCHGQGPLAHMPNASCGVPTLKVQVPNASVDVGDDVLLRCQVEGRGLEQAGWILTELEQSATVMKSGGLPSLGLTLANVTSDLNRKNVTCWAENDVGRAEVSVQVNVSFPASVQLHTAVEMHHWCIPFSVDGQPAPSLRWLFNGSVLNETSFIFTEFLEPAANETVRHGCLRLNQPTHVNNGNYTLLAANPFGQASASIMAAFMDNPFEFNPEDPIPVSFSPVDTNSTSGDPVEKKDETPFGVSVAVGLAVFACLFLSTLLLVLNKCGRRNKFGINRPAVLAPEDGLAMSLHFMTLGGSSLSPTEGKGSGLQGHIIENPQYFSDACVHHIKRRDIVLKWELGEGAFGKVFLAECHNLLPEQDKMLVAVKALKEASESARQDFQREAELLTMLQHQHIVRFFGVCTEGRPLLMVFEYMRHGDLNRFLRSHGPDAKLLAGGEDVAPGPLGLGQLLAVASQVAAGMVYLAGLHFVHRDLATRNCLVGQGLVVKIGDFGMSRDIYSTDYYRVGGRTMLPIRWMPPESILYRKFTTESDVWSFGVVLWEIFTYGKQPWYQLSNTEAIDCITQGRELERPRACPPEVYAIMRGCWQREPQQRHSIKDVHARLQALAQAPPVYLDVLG
From the text: as §1

Row | Molecule | prevention of Aβ-induced degeneration ([2]; 3 day incubation) | activation of TrkB (Trk phosphorylation, anti-TrkY490) (TrkB) | phosphorylation of Trk in TrkC-expressing cells (TrkC) | other results
1 | COC(=O)[C@@]1(O)C[C@H]2O[C@]1(C)n1c3ccccc3c3c4c(c5c6ccccc6n2c5c31)C(=O)NC4 [Compound K252a] |  |  |  | effect on quinolinic acid-induced death ([1]; K252a alone): no effect; effect on the ability of BDNF to prevent quinolinic acid-induced death ([1]; K252a with BDNF): blocks the ability of BDNF to prevent death
2 | CC[C@H](C)[C@H](N)C(=O)NCCN1CCOCC1 [LM11A-31, reference compound] | blocks Aβ-induced degeneration |  |  | 
3 | Aβ1-42 oligomer: amyloid-β 1-42 oligomer preparation used to induce neuronal degeneration [reference compound] |  |  |  | reduction in neuronal survival ([2]; 10 μM, 3 day incubation): ~40%
4 | NGF: Nerve Growth Factor, a neurotrophin; native ligand of TrkA | fails to prevent Aβ-induced degeneration | do not activate TrkB |  | effect on LM11A-31 blocking of Aβ-induced degeneration ([2]; NGF together with LM11A-31): blocked
5 | NT-3: Neurotrophin-3; native ligand of TrkC |  |  | promotes the phosphorylation of Trk | 
6 | BDNF: Brain Derived Neurotrophic Factor, a neurotrophin; native ligand of TrkB (protein, UniProt P23560 19-247, looked up) Neurotrophic factor BDNF …: APMKEANIRGQGGLAYPGVRTHGTLESVNGPKAGSRGLTSLADTFEHVIEELLDEDQKVRPNEENNKDADLYTSRVMLSSQVPLEPPLLFLLEEYKNYLDAANMSMRVRRHSDPARRGELSVCDSISEWVTAADKKTAVDMSGGTVTVLEKVPVSKGQLKQYFYETKCNPMGYTKEGCRGIDKRHWNSQCRTTQSYVRALTMDSKKRIGWRFIRIDTSCVCTLTIKRGR |  | activate TrkB | do not | activation of TrkA (Trk phosphorylation) (TrkA): does not; prevention of quinolinic acid-induced death ([1]; previous work): can prevent quinolinic acid-induced death
